# Assay results published in US20160102058A1, “FLUORO-PERHEXILINE COMPOUNDS AND THEIR THERAPEUTIC USE” (THE UNIVERSITY COURT OF THE UNIVERSITY OF ABERDEEN, priority 2013, published 2016).
# Tests used:
# cardiac CPT-1 = target: T1, cardiac CPT-1 (Rattus norvegicus, UniProt Q63704); assay: Carnitine palmitoyl transferase (M-CPT-1) inhibition assay, rat heart mitochondria; type: biochemical
# T1 construct: 50 μL of mitochondrial suspension, suitably diluted in Assay Buffer; from tissue; host or cells: rat heart mitochondria (Sprague-Dawley)
# T1 sequence (Q63704 1-772): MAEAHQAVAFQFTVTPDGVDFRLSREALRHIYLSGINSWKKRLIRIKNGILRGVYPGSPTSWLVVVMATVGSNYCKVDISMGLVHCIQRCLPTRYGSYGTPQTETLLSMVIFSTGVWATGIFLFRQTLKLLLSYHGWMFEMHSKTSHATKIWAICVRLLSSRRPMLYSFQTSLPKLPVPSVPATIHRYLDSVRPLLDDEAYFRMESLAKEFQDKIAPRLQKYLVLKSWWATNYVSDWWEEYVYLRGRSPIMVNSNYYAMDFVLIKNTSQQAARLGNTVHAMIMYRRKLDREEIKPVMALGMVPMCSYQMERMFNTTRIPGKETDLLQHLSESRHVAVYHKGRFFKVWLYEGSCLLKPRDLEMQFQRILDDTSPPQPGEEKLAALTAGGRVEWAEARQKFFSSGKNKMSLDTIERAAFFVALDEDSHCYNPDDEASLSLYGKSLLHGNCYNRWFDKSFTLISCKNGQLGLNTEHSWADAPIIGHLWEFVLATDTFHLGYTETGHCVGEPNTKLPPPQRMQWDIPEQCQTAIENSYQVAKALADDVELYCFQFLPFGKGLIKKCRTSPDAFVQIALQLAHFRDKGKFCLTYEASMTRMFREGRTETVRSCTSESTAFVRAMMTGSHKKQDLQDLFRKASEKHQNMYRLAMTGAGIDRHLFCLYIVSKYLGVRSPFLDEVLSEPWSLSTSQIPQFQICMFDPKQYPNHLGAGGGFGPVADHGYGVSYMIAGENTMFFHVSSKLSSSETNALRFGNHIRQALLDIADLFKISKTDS
# Procedure: Male Sprague-Dawley rats (8-10 weeks of age) were purchased from Charles River and maintained for 10 days under standard housing and feeding conditions. All isolation procedures were performed on ice using pre-cooled solutions and instruments. Rats (n=4 per mitochondrial isolation batch) were sacrificed by CO2 asphyxiation, and hearts were removed and rinsed in 3 changes of ice-cold phosphate buffered saline (PBS) to remove blood. Hearts were finely minced with scissors, and homogenised in 5 volumes/wt of a buffer containing 300 mM sucrose, 5 mM MOPS, 1 mM EGTA, 5 mM K2HPO4, 0.1% BSA, pH 7.4, using a teflon Potter homogenizer. The homogenate was centrifuged at 1500×g for 10 min, the supernatant was collected and centrifuged at 9800×g for 5 min, the mitochondrial pellet was washed and centrifuged twice in the same buffer, and then re-suspended in Assay Buffer (150 mM sucrose, 60 mM KCl, 25 mM Tris/HCl, 1 mM EDTA, 0.1 mM 4,4′-dithiopyridine, 1.3 mg/mL lipid-depleted BSA, pH 6.8). Mitochondrial suspensions were kept on ice and used fresh for each set of experiments. A spectrophotometric assay for M-CPT-1 was used, which measured the decrease in palmitoyl CoA concentration as it was utilised by the enzyme to produce palmitoylcarnitine, according to the following reaction: palmitoyl CoA+L-carnitine→palmitoylcarnitine+CoA The disappearance of palmitoyl CoA was monitored as a loss of UV absorbance at 324 nm. Enzyme reactions (1.0 mL final volume, in a spectrophotometer cuvette) contained: • 890 μL of Assay Buffer (see above). • 50 μL of mitochondrial suspension, suitably diluted in Assay Buffer. • 20 μL of 50-fold concentrated inhibitor in suitable vehicle, or vehicle alone. • 20 μL of 2 mM palmitoyl CoA (final concentration 40 μM). • 20 μL of 20 mM L-carnitine (final concentration 400 μM). […] Tubes were incubated at 37° C., and UV absorbance was recorded for 5 min. […] The protein concentration of the mitochondrial suspension was determined using the Bradford assay reagent. […]
# [1] = Rat liver microsomal (RLM) stability assay; type: in vitro ADME; settings: both sexes, pH 7.4, rat liver microsomes, 3 μM test compound; for microsomal CLint at 3 μM: read-out: CLint (μL/min/mg protein) RLM; for half-life at 3 μM: read-out: T½ (min) RLM
# Procedure: The metabolic stability of fluoroperhexiline derivatives was measured by determination of the rate of compound disappearance when incubated in the presence of both human and rat liver microsomes. Liver microsomes are prepared from the endoplasmic reticulum of hepatocytes and are the primary source of the most important enzymes (cytochrome P450) involved in drug metabolism. Study of drug stability in the presence of liver microsomes is accepted as a valuable model permitting rapid prediction of in vivo drug stability.
# Human and rat liver microsomes were obtained from a commercial source. Test compounds (3 μM) were incubated with pooled liver microsomes (male and female). Samples were incubated for a 45 minute period and removed at 5 time points and test compounds were analysed by LC-MS/MS.
# Microsomes (final protein concentration 0.5 mg/mL), 0.1 M phosphate buffer pH 7.4, and test compound (final concentration 3 μM; diluted from 10 mM stock solution to give a final DMSO concentration of 0.25%) were incubated at 37° C. prior to the addition of NADPH (final concentration 1 mM) to initiate the reaction. The final incubation volume was 25 μL. A control incubation was included for each compound tested, where 0.1 M phosphate buffer pH 7.4 was added instead of NADPH. The control compounds testosterone and 7-hydroxycoumarin were included in each experiment and all incubations were performed singularly for each compound.
# Each compound was incubated for 0, 5, 15, 30, and 45 minutes. The control (minus NADPH) was incubated for 45 minutes only. The reactions were stopped by the addition of 50 μL methanol containing internal standard at the appropriate time points. The incubation plates were centrifuged at 2500 rpm for 20 minutes at 4° C. to precipitate the protein.
# Following protein precipitation, the sample supernatants were combined in cassettes of up to 4 compounds and analysed using standard LC-MS/MS conditions.
# From a plot of the natural logarithm of the peak area ratio (i.e., the ratio of compound peak area:internal standard peak area) against time, the gradient of the line was determined. Subsequently, half-life and intrinsic clearance were calculated using the equations below:
# Eliminated Rate Constant (k)=(−Gradient).
# Half-Life (t1/2) (min)=0.063/k.
# Intrinsic Clearance (CLint) […]=(V×0.693)/t1/2. • wherein V=Incubation Volume (μL/mg microsomal protein).
Compound,IC50 (cardiac CPT-1) [µM],microsomal CLint at 3 μM [1] [µL/min/mg],half-life at 3 μM [1] [min]
"FC1(F)CCC(C(CC2CCCCN2)C2CCCCC2)CC1 (mixture of isomers) [FPER-001, 2-(2-Cyclohexyl-2-(4,4-difluorocyclohexyl)ethyl)piperidine]",35,19,72
"FC1CCC(C(CC2CCCCN2)C2CCCCC2)CC1 (mixture of isomers) [FPER-003, 2-(2-Cyclohexyl-2-(4-fluorocyclohexyl)ethyl)piperidine]",85,129,11
"C1CCC(C(CC2CCCCN2)C2CCCCC2)CC1 (stereo not drawn) [Perhexiline, 2-(2,2-dicyclohexylethyl)piperidine]",18,65,21
